Molecules are shown by their SMILES. Several values for one entry are separate records, joined by “and”; a condition that tells them apart may be missing. Equal entries are not always repeated. Records with an inconclusive call do not appear.

The test has as its system BDF1 mice, Friend leukemia sc, tumor weight T/C. The test can be described thus: NCI In Vivo Anticancer Drug Screen. Data for tumor model Friend Virus Leukemia (Solid) (subcutaneous) in B6D2F1 (BDF1) mice. Particulars: endpoint: mean tumor weight, higher = larger tumour. Here is the method: The antitumor activity of compounds was measured in mice bearing transplantable tumors. Survival or tumor size were measured and the results are expressed as the measurement made in the treated group (T) divided by the measurement made in the vehicle treated control group (C). The tumor model used in this assay is Friend Virus Leukemia (Solid) (subcutaneous) in B6D2F1 (BDF1) mice

[1] abbreviates: dose: 50.0 mg/kg/injection, schedule: Q01DX011 (ip), vehicle: carboxymethylcellulose (CMC).
Setting [2] is: dose: 100.0 mg/kg/injection, schedule: Q01DX011 (ip), vehicle: carboxymethylcellulose (CMC).
Setting [3] is: dose: 200.0 mg/kg/injection, schedule: Q01DX011 (ip), vehicle: carboxymethylcellulose (CMC).
The mark [4] stands for this setting: dose: 25.0 mg/kg/injection, schedule: Q01DX011 (ip), vehicle: carboxymethylcellulose (CMC).

Regarding `CC(=O)OCC(=O)[C@@]1(O)CC[C@H]2[C@@H]3CCC4=CC(=O)CC[C@]4(C)[C@H]3C(=O)C[C@@]21C`, the T/C by setting is: (dose: 5.62 mg/kg/injection, schedule: Q01DX011 (sc), vehicle: steriod suspending solution) 59 % of control; (dose: 8.0 mg/kg/injection, schedule: Q01DX011 (sc), vehicle: steriod suspending solution) 97 % of control; (dose: 11.25 mg/kg/injection, schedule: Q01DX011 (sc), vehicle: steriod suspending solution) 33 % of control; (dose: 16.0 mg/kg/injection, schedule: Q01DX011 (sc), vehicle: steriod suspending solution) 69 % of control; (dose: 22.5 mg/kg/injection, schedule: Q01DX011 (sc), vehicle: steriod suspending solution) 21 % of control; (dose: 31.0 mg/kg/injection, schedule: Q01DX011 (sc), vehicle: steriod suspending solution) 15 % of control and 29 % of control (2×). The T/C is 50 % of control (dose: 34.0 mg/kg/injection, schedule: Q01DX011 (sc), vehicle: steriod suspending solution); 13 % of control (dose: 45.0 mg/kg/injection, schedule: Q01DX011 (sc), vehicle: steriod suspending solution); 7 % of control and 9 % of control and 18 % of control (dose: 62.0 mg/kg/injection, schedule: Q01DX011 (sc), vehicle: steriod suspending solution); 28 % of control (dose: 68.0 mg/kg/injection, schedule: Q01DX011 (sc), vehicle: steriod suspending solution); 3 % of control and 15 % of control and 20 % of control (dose: 125.0 mg/kg/injection, schedule: Q01DX011 (sc), vehicle: steriod suspending solution); 3 % of control and 6 % of control and 20 % of control (dose: 250.0 mg/kg/injection, schedule: Q01DX011 (sc), vehicle: steriod suspending solution).

`CCCn1cnc2c(SCc3ccccc3Cl)nc(N)nc21`: the T/C runs as follows: under setting [1], 57 % of control; under setting [2], 41 % of control; under setting [3], 12 % of control; (dose: 400.0 mg/kg/injection, schedule: Q01DX011 (ip), vehicle: carboxymethylcellulose (CMC)) 5 % of control.

Consider `Cc1cc(N(CCCl)CCCl)ccc1N=Nc1ccccc1C(=O)O`, for which the T/C (dose: 5.0 mg/kg/injection, schedule: Q01DX011 (ip), vehicle: saline) is 111 % of control; the T/C (dose: 7.5 mg/kg/injection, schedule: Q01DX011 (ip), vehicle: saline) is 111 % of control; the T/C (dose: 10.0 mg/kg/injection, schedule: Q01DX011 (ip), vehicle: saline) was 105 % of control; the T/C (dose: 15.0 mg/kg/injection, schedule: Q01DX011 (ip), vehicle: saline) was 60 % of control and 73 % of control; the T/C (dose: 25.0 mg/kg/injection, schedule: Q01DX011 (ip), vehicle: saline) is 21 % of control; the T/C (dose: 30.0 mg/kg/injection, schedule: Q01DX011 (ip), vehicle: saline) was 20 % of control.

`O=C1C=CC(=Nc2ccc(O)c3ncccc23)c2cccnc21`: the T/C (dose: 6.0 mg/kg/injection, schedule: Q01DX011 (ip), vehicle: carboxymethylcellulose (CMC)) is 71 % of control and the T/C (dose: 12.5 mg/kg/injection, schedule: Q01DX011 (ip), vehicle: carboxymethylcellulose (CMC)) is 84 % of control.

With `Oc1ccc2ccccc2c1N=Nc1ccccc1`, the T/C was 90 % of control under setting [4]; 56 % of control under setting [1]; 41 % of control and 47 % of control under setting [2]; 65 % of control and 47 % of control under setting [3].

In the case of `S=P(N1CC1)(N1CC1)N1CC1`, the T/C by setting is: (dose: 0.3 mg/kg/injection, schedule: Q01DX011 (ip), vehicle: carboxymethylcellulose (CMC)) 79 % of control; (dose: 0.6 mg/kg/injection, schedule: Q01DX011 (ip), vehicle: carboxymethylcellulose (CMC)) 73 % of control; (dose: 0.96 mg/kg/injection, schedule: Q01DX011 (ip), vehicle: carboxymethylcellulose (CMC)) 72 % of control; (dose: 1.6 mg/kg/injection, schedule: Q01DX011 (ip), vehicle: carboxymethylcellulose (CMC)) 99 % of control; (dose: 2.4 mg/kg/injection, schedule: Q01DX011 (ip), vehicle: carboxymethylcellulose (CMC)) 61 % of control and 73 % of control.

Take `NC(C=O)C(O)C(O)C(O)CO` (centres undefined): the T/C runs as follows: (dose: 125.0 mg/kg/injection, schedule: Q01DX011 (ip), vehicle: carboxymethylcellulose (CMC)) 102 % of control; (dose: 250.0 mg/kg/injection, schedule: Q01DX011 (ip), vehicle: carboxymethylcellulose (CMC)) 168 % of control; (dose: 1000.0 mg/kg/injection, schedule: Q01DX011 (ip), vehicle: carboxymethylcellulose (CMC)) 115 % of control.

On to `CO[C@H]1[C@@H](O)C[C@H]2[C@@H]3CC=C4C[C@@H](O)CC[C@]4(C)[C@H]3CC[C@@]21C`, for which the T/C runs as follows: (dose: 10.0 mg/kg/injection, schedule: Q01DX011 (sc), vehicle: steriod suspending solution) 77 % of control; (dose: 20.0 mg/kg/injection, schedule: Q01DX011 (sc), vehicle: steriod suspending solution) 116 % of control; (dose: 40.0 mg/kg/injection, schedule: Q01DX011 (sc), vehicle: steriod suspending solution) 115 % of control.

`C[C@]12CCC(=O)C=C1CC[C@@H]1[C@@H]2[C@@H](O)C[C@@]2(C)[C@H]1CC[C@]2(O)C(=O)COC(=O)c1ccc([N+](=O)[O-])cc1Cl`: the T/C (dose: 50.0 mg/kg/injection, schedule: Q01DX011 (sc), vehicle: steriod suspending solution) is 69 % of control; the T/C (dose: 100.0 mg/kg/injection, schedule: Q01DX011 (sc), vehicle: steriod suspending solution) was 58 % of control; the T/C (dose: 200.0 mg/kg/injection, schedule: Q01DX011 (sc), vehicle: steriod suspending solution) was 55 % of control; the T/C (dose: 400.0 mg/kg/injection, schedule: Q01DX011 (sc), vehicle: steriod suspending solution) is 35 % of control.

`CCN(CC)CCNc1ccc([N+](=O)[O-])c2sc3ccccc3c(=O)c12`: the T/C was 87 % of control (dose: 20.0 mg/kg/injection, schedule: Q01DX011 (ip), vehicle: saline) and 110 % of control (dose: 40.0 mg/kg/injection, schedule: Q01DX011 (ip), vehicle: saline).

As for `O=C(O)CC(O)(CC(=O)O)C(=O)O.[Ga]`, the T/C under setting [4] is 108 % of control and the T/C under setting [1] was 104 % of control.

Take `C[C@H]1C[C@H]2[C@@H]3CC[C@](O)(C(=O)CO)[C@@]3(C)C[C@H](O)[C@]2(F)[C@@]2(C)C=CC(=O)C=C12`: the T/C was 61 % of control and 63 % of control (dose: 0.5 mg/kg/injection, schedule: Q01DX011 (sc), vehicle: steriod suspending solution); 76 % of control and 91 % of control (dose: 1.0 mg/kg/injection, schedule: Q01DX011 (sc), vehicle: steriod suspending solution); 60 % of control and 74 % of control (dose: 3.0 mg/kg/injection, schedule: Q01DX011 (sc), vehicle: steriod suspending solution); 31 % of control (dose: 6.0 mg/kg/injection, schedule: Q01DX011 (sc), vehicle: steriod suspending solution); 47 % of control (dose: 7.0 mg/kg/injection, schedule: Q01DX011 (sc), vehicle: steriod suspending solution); 28 % of control (dose: 15.0 mg/kg/injection, schedule: Q01DX011 (sc), vehicle: steriod suspending solution). Further, the T/C reads like this: (dose: 30.0 mg/kg/injection, schedule: Q01DX011 (sc), vehicle: steriod suspending solution) 17 % of control; (dose: 60.0 mg/kg/injection, schedule: Q01DX011 (sc), vehicle: steriod suspending solution) 10 % of control; (dose: 120.0 mg/kg/injection, schedule: Q01DX011 (sc), vehicle: steriod suspending solution) 5 % of control.

Regarding `O=C1C(NC(=O)C2CCCCC2)=C(N2CC2)C(=O)C(NC(=O)C2CCCCC2)=C1N1CC1`, the T/C is 106 % of control (dose: 22.0 mg/kg/injection, schedule: Q01DX011 (ip), vehicle: carboxymethylcellulose (CMC)); 82 % of control (dose: 43.0 mg/kg/injection, schedule: Q01DX011 (ip), vehicle: carboxymethylcellulose (CMC)); 62 % of control (dose: 87.0 mg/kg/injection, schedule: Q01DX011 (ip), vehicle: carboxymethylcellulose (CMC)); 61 % of control (dose: 350.0 mg/kg/injection, schedule: Q01DX011 (ip), vehicle: carboxymethylcellulose (CMC)).

For `CCCCn1cnc2c(SC)nc(N)nc21`, the T/C runs as follows: (dose: 18.75 mg/kg/injection, schedule: Q01DX011 (ip), vehicle: carboxymethylcellulose (CMC)) 120 % of control; (dose: 37.5 mg/kg/injection, schedule: Q01DX011 (ip), vehicle: carboxymethylcellulose (CMC)) 98 % of control; (dose: 75.0 mg/kg/injection, schedule: Q01DX011 (ip), vehicle: carboxymethylcellulose (CMC)) 83 % of control; (dose: 150.0 mg/kg/injection, schedule: Q01DX011 (ip), vehicle: carboxymethylcellulose (CMC)) 63 % of control.

As for `NC(=O)n1cccn1`, the T/C is 107 % of control (dose: 25.0 mg/kg/injection, schedule: Q01DX011 (ip), vehicle: other); 120 % of control (dose: 50.0 mg/kg/injection, schedule: Q01DX011 (ip), vehicle: other); 78 % of control (dose: 100.0 mg/kg/injection, schedule: Q01DX011 (ip), vehicle: other); 13 % of control (dose: 150.0 mg/kg/injection, schedule: Q01DX011 (ip), vehicle: other); 28 % of control (dose: 200.0 mg/kg/injection, schedule: Q01DX011 (ip), vehicle: other).

The record behind these values is PubChem BioAssay AID228 (DTP/NCI, 2004).
